In ChEMBL document CHEMBL1133263, “A simple polar deacetylated caloporoside derivative is a positive modulator of the GABA(A) chloride channel complex in cortical mammalian neurones” (Bioorg Med Chem Lett, 2000):

Organism: Rattus norvegicus
Assay: Concentration required reduce reversibly the incidence of both spontaneous excitatory post-synaptic currents and inhibitory post-synaptic currents
Type: functional

## CCCCCCCCO[C@H]1O[C@@H](CO)[C@@H](O)[C@H](O)[C@H]1O
  Concentration: 100 µM
